Assay [1] addresses T1, Melanocortin-5 (MC-5) receptor (Homo sapiens, UniProt P33032). Briefly: MC-5 receptor binding assay, MDS-PANLABS (human recombinant HEK-293 cells, [125]NDP-α-MSH). Also noted: host or cells: HEK-293 cells. The method, then: (§1) Binding to the MC-5 receptor was measured in two assays, performed by CEREP and MDS-PANLABS.
The assay run by MDS-PANLABS (Catalog Ref #251400) used human recombinant HEK-293 cells, ^[125]NDP-α-MSH as the ligand (0.035 nM), various concentrations of the compound of formula (I), incubating at 37° C. for 60 min, and detecting binding via scintillation counting. Specific ligand binding to the receptors was defined as the difference between the total binding and the nonspecific binding determined in the presence of an excess (3 μM) of unlabelled NDP-α-MSH. IC50 values were determined by a non-linear, least squares regression analysis using Data Analysis Toolbox. Inhibition constants (Ki) were calculated using the equation of Cheng and Prusoff (Biochem. Pharmacol. 22:3099, 1973) using the observed IC50 of the tested compound, the concentration of radioligand employed in the assay, and the historical values for the Kd of the ligand (obtained experimentally at MDS Pharma Services).
The compound of formula (I) was tested for binding to the MC-5 receptor in both the CEREP and MDS-PANLABS assays with results as listed in Table 3 below.

In assay [2] the test system is human sebocytes. Briefly: cells. The format is cell-based.
The target of assay [3] is T1, Melanocortin-5 (MC-5) receptor. Briefly: MC-5 receptor binding assay, CEREP (human recombinant CHO cells, [125]NDP-α-MSH). The procedure:
as §1
The assay run by CEREP (Catalog Ref. #889-5h) used human recombinant CHO cells, ^[125]NDP-α-MSH as the ligand (0.05 nM concentration), NDP-α-MSH as the non-specific (1 μM), incubating at 37° C. for 60 min and detecting binding via scintillation counting. The specific ligand binding to the receptors was defined as the difference between the total binding and the nonspecific binding determined in the presence of an excess of unlabelled ligand. The IC50 values (the concentration causing a half-maximal inhibition of control specific binding) and Hill coefficients were determined by non-linear regression analysis of the competition curves generated with mean replicate values using Hill equation curve fitting (Y=D+[(A−D)/(1+(C/C50)^nH)], where Y=specific binding, D=minimum specific binding, A=maximum specific binding, C=compound concentration, C50=IC50, and nH=slope factor). This analysis was performed using software developed at CEREP (Hill software) and validated by comparison with data generated by the commercial software SigmaPlot® 4.0 for Windows® (© 1997 by SPSS Inc.). The inhibition constants (Ki) were calculated using the Cheng Prusoff equation (Ki=IC50/(1+(L/KD)), where L=concentration of radioligand in the assay, and KD=affinity of the radioligand for the receptor). […]

In assay [4] the test system is human sebocytes. As to the kind of experiment: cells. Format: cell-based. The settings on record: read-out: % Inhibition (Nile Red Fluorescence).
Assay [5] concerns isolated human adipocytes. The settings on record: concentrations as high as 1 μM; cited from earlier work.
The test system of a further assay is rabbit adipocytes. The settings on record: read-out: EC50, lipolytic activity; cited from earlier work.
Another assay deals with rat adipocytes. The settings on record: read-out: EC50, lipolytic activity; cited from earlier work.
Assay [6] relates to isolated non-human primate adipocytes. Particulars: concentrations as high as 1 μM; cited from earlier work.

As a reminder, the IC50 is the point on the concentration scale where inhibition reaches its midpoint. A word on the Ki: it is a dissociation constant, usually derived from enzyme kinetics or from competition with a known ligand. The term inhibition denotes the relative decrease from the control value, in per cent. As usually defined, the EC50 is the concentration that produces a half-maximal response.

Values joined by “and” are separate entries in the source; they are usually repeats but may differ in a detail not shown here. Identical values can stand only once. Like-named read-outs stand apart in the source and are kept apart here.

T1 sequence (P33032 whole entry): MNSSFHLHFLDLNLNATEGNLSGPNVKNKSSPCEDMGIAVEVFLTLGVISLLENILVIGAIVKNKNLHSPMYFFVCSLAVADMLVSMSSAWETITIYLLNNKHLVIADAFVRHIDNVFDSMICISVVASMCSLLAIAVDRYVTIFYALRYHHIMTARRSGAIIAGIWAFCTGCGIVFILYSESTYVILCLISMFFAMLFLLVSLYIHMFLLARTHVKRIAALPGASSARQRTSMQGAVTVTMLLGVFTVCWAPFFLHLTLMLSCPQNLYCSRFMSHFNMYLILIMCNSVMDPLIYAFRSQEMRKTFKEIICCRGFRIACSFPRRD

In the case of `COc1ccccc1N/C(=N\C(=S)Nc1ccccc1)c1ccccc1OC` [Compound (I), 1-[(2-methoxy-phenyl)-(2-methoxy-phenylamino)-methylene]-3-phenyl-thiourea], the IC50 was 2350 ± 1670 nM in assay [1] (MDS-PANLABS MEAN ± SD); 1170 nM and 3530 nM in assay [1] (MDS-PANLABS assay, HEK-293 cells, 0.035 nM radioligand, single runs); 57 µM in assay [3] (CHO cells, 0.05 nM radioligand). Also, the Ki in assay [1] (MDS-PANLABS MEAN ± SD) was 2200 ± 1560 nM; in assay [1] (MDS-PANLABS assay, Cheng Prusoff, single runs) it was 1100 nM and 3310 nM; in assay [3] (Cheng Prusoff) it was 53 µM. Also, the inhibition at 0.8 µM was found to be 30% in the assay with human sebocytes [2] (read-out: % Inhibition of Sebaceous Lipid Synthesis, cholesterol esters, Study 1, @ 0.8 μM); 64% with human sebocytes [2] (read-out: % Inhibition of Sebaceous Lipid Synthesis, cholesterol esters, Study 2, @ 0.8 μM); 50% in the assay on human sebocytes [2] (read-out: % Inhibition of Sebaceous Lipid Synthesis, squalene, Study 1, @ 0.8 μM); 88% with human sebocytes [2] (read-out: % Inhibition of Sebaceous Lipid Synthesis, squalene, Study 2, @ 0.8 μM); 0% in the assay with human sebocytes [2] (read-out: % Inhibition of Sebaceous Lipid Synthesis, triglycerides, Study 1, @ 0.8 μM); 20% in the assay with human sebocytes [2] (read-out: % Inhibition of Sebaceous Lipid Synthesis, triglycerides, Study 2, @ 0.8 μM). Moreover, the inhibition at 0.8 µM in the assay with human sebocytes [4] turned out to be 39%. In addition, the inhibition at 1.2 µM with human sebocytes [2] (read-out: % Inhibition of Sebaceous Lipid Synthesis, cholesterol esters, Study 1, @ 1.2 μM) came to 35%; in the assay with human sebocytes [2] (read-out: % Inhibition of Sebaceous Lipid Synthesis, cholesterol esters, Study 2, @ 1.2 μM), 72%; in the assay on human sebocytes [2] (read-out: % Inhibition of Sebaceous Lipid Synthesis, squalene, Study 1, @ 1.2 μM) it was 55%; in the assay with human sebocytes [2] (read-out: % Inhibition of Sebaceous Lipid Synthesis, squalene, Study 2, @ 1.2 μM), 92%; in the assay with human sebocytes [2] (read-out: % Inhibition of Sebaceous Lipid Synthesis, triglycerides, Study 1, @ 1.2 μM), 10%; in the assay with human sebocytes [2] (read-out: % Inhibition of Sebaceous Lipid Synthesis, triglycerides, Study 2, @ 1.2 μM), 16%. Moreover, in the assay with human sebocytes [4], the inhibition at 1.2 µM came to 43%. Moreover, the inhibition at 1.6 µM in the assay with human sebocytes [2] (read-out: % Inhibition of Sebaceous Lipid Synthesis, cholesterol esters, Study 1, @ 1.6 μM) came to 45%; in the assay on human sebocytes [2] (read-out: % Inhibition of Sebaceous Lipid Synthesis, cholesterol esters, Study 2, @ 1.6 μM), 74%; in the assay on human sebocytes [2] (read-out: % Inhibition of Sebaceous Lipid Synthesis, squalene, Study 1, @ 1.6 μM), 62%; with human sebocytes [2] (read-out: % Inhibition of Sebaceous Lipid Synthesis, squalene, Study 2, @ 1.6 μM), 94%; in the assay on human sebocytes [2] (read-out: % Inhibition of Sebaceous Lipid Synthesis, triglycerides, Study 1, @ 1.6 μM), 8%; in the assay with human sebocytes [2] (read-out: % Inhibition of Sebaceous Lipid Synthesis, triglycerides, Study 2, @ 1.6 μM) it was 14%. The inhibition at 3.2 µM in the assay with human sebocytes [2] (read-out: % Inhibition of Sebaceous Lipid Synthesis, cholesterol esters, Study 1, @ 3.2 μM) amounted to 60%; with human sebocytes [2] (read-out: % Inhibition of Sebaceous Lipid Synthesis, cholesterol esters, Study 2, @ 3.2 μM) it was 86%; in the assay with human sebocytes [2] (read-out: % Inhibition of Sebaceous Lipid Synthesis, squalene, Study 1, @ 3.2 μM) it was 76%; in the assay on human sebocytes [2] (read-out: % Inhibition of Sebaceous Lipid Synthesis, squalene, Study 2, @ 3.2 μM) it was 96%; with human sebocytes [2] (read-out: % Inhibition of Sebaceous Lipid Synthesis, triglycerides, Study 1, @ 3.2 μM) it was 2%; with human sebocytes [2] (read-out: % Inhibition of Sebaceous Lipid Synthesis, triglycerides, Study 2, @ 3.2 μM), 6%. The inhibition at 0.4 µM is 44% in the assay with human sebocytes [2] (read-out: % Inhibition of Sebaceous Lipid Synthesis, cholesterol esters, Study 2, @ 0.4 μM); 64% with human sebocytes [2] (read-out: % Inhibition of Sebaceous Lipid Synthesis, squalene, Study 2, @ 0.4 μM); 22% with human sebocytes [2] (read-out: % Inhibition of Sebaceous Lipid Synthesis, triglycerides, Study 2, @ 0.4 μM); 24% in the assay on human sebocytes [4]. The inhibition at 0.6 µM with human sebocytes [4] is 25%. For the same compound, the inhibition at 1 µM in the assay with human sebocytes [4] worked out at 45%.
“ACTH: melanocortin neuropeptide arising from pro-opiomelanocortin (POMC) (SYSMEHFRWGKPVGKKRRPVKVYPNGAEDESAEAFPLEF; Corticotropin; UniProt P01189 138-176, looked up)”: the effect on lipolysis result in assay [5] and in assay [6] was “very little effect” each time. The EC50 in the assay on rabbit adipocytes was 16.4 nM; in the assay with rat adipocytes it was 1.34 nM.
For αMSH, the EC50 with rabbit adipocytes is 3.7 nM.
